Measured values: patent US20240315990A1, “Adelmidrol For Use In Diseases Characterized By Insufficient Agonism Of PPAR-GAMMA Receptor” (Epitech Group S.P.A., priority 2016, published 2024)

Key:
[1] = tested on: DNBS-induced bowel tissue lesion; assay: DNBS-induced bowel tissue lesion, microscope lesion score; type: in vivo; conditions: rat, DNBS 15 mg intrarectal, Adelmidrol 10 mg/kg per os in 2% CMC
Protocol: Rats were anesthetized with ethyl ether in order to ensure the animals' waking up after 4-5 minutes. 60 mg/mL DNBS was dissolved in 50% ethanol in water. An amount of 0.25 ml of alcoholic solution (containing 15 mg of DNBS) was instilled to each animal, using an 8 cm long intrarectal catheter made of silicone so as to reach […]. During the experiment, the possible ejection of the solution from the rectum when the animal awoke was carefully monitored, taking it into account in the final assessment. The assessment of the bowel lesion was performed by taking, upon sacrifice of the animal, the entire bowel which was adequately washed with physiological solution and immediately examined under a microscope. Adelmidrol was administered per os through a gastric cannula in an amount of 10 mg/kg dissolved in aqueous solution containing 2% CMC (carboxymethylcellulose). The bowel tissue lesion was quantized through microscope inspection by two different observers. […]

[2] = tested on: carrageenan-induced rat paw edema; assay: carrageenan-induced rat paw edema, foot volume by plethysmometer; type: in vivo
Protocol: The experimental model of carrageenan-induced rat paw edema was used.
The experimental model of carrageenan-induced paw edema was induced by sub-plantarily injecting a solution of carrageenan (containing 50 μl of sterile saline containing 1% carrageenan) in the animal's right paw (rat).
The foot volume was measured at specific time intervals by means of a plethysmometer (Ugo Basile, Milan, Italy). The increase in plantar volume was assessed as the difference between the value obtained at the specific time intervals and the volume at baseline (time 0) measured immediately before the administration of carrageenan.
The rats (10 animals per group) were divided into the following experimental groups: • CAR+physiological solution; • CAR+Adelmidrol (3 mg/kg); Adelmidrol was administered i.p. when injecting CAR; • CAR+Adelmidrol (10 mg/kg); Adelmidrol was administered i.p. when injecting CAR.

TNF-α and IL1β = assay: bleomycin-induced lung lesion, dosage of inflammatory cytokines TNF-α and IL1β; type: in vivo, CD1 male mice; conditions: BLM-treated mice
Protocol: (§1) CD1 male mice ((CD1(ICR) mice (25-35 g; Harlan Nossan, Italy) were accommodated in a controlled environment and fed with standard food and water.
(§2) Using a catheter (tracheotomy tube), the mice received a single intratracheal instillation of physiological solution (0.9%) or saline containing bleomycin sulfate (0.1 U/mouse) in a final volume of 100 μL, and the liquid was immediately followed by 300 μL of air in order to also ensure the distribution thereof in the distal airways.
TNF-α and IL1β are also regarded as the biochemical markers of inflammation and fibrosis of the lung. The results obtained are shown in the chart in FIG. 9.

[3] = tested on: inflammatory cells in BAL fluid; assay: bleomycin-induced lung lesion, inflammatory cells in bronchoalveolar lavage (BAL) fluid; type: in vivo, CD1 male mice; conditions: BLM-treated mice, BAL seven days after induction
Protocol: as §1, §2
Seven days after the induction of fibrosis, the mice were sacrificed and their trachea was immediately cannulated with an intravenous catheter made of polyethylene (Neo Delta Ven. 2, Delta Med, Viadana, Italy) equipped with a 1 mL 24-gauge syringe. The lungs were washed once with 0.5 mL of D-PBS (GIBCO, UK). In 95% of mice, the recovery volume exceeds 0.4 mL. The BAL fluid was centrifuged at 800 rpm, the surfactant was removed and the cell pellet was resuspended in PBS. The number of cells in the BAL fluid was obtained by counting on a hemocytometer in the presence of Trypan Blue. Cytospins were prepared from the cells resuspended in PBS. The slides were dried in dry air and then colored with Diff-Quick Set Stain (Diff-Quick, Baxter Scientific, Miami, FL). Using the optical microscopy, a total of 400 cells was examined from each sample in randomly chosen fields. […]

myeloperoxidase (MPO) = myeloperoxidase (MPO) activity in the bowel of DNBS-treated animals; type: in vivo, rat; conditions: Adelmidrol 10 mg/kg orally
Protocol: The determination of the activity of the enzyme myeloperoxidase (MPO), which is considered an important marker of neutrophil activity in the bowel, fully confirms the effect of Adelmidrol on the colonic mucosa. The test was carried out by the method described in the literature (Morampudi V. et al. Journal of Visualized Experiments—February 2014; 84:1-8) on DBNS-treated animals, not treated animals, or animals orally treated with Adelmidrol (10 mg/kg).
The results are shown in the chart in FIG. 4.

In the case of O=C(CCCCCCCC(=O)NCCO)NCCO [Adelmidrol, azelaic acid diethanolamide], the “bowel tissue lesion, score 0 to 8 by microscope inspection (FIG. 2, FIG. 3)” value [1] is reported as “important, significant protection of the colonic mucosa”, the “effect on carrageenan-induced edema (in words)” value ([2]; 3 and 10 mg/kg i.p.) is reported as “reduction of the carrageenan-induced edema with a dose-dependent action” and the “paw edema as a percentage with respect to the edema produced by carrageenan alone” value (from here on “paw edema as a percentage”) ([2]; Adelmidrol 3 mg/kg i.p. when injecting CAR, 0 min.) is reported as 101.2 percentage. For the same compound, the “paw edema as a percentage” value ([2]; Adelmidrol 3 mg/kg i.p. when injecting CAR, 30 min) was 86.7 percentage, the “paw edema as a percentage” value ([2]; Adelmidrol 3 mg/kg i.p. when injecting CAR, 1 hr) was 71.9 percentage and the “paw edema as a percentage” value ([2]; Adelmidrol 3 mg/kg i.p. when injecting CAR, 2 hr) was 72.3 percentage. The “paw edema as a percentage” value ([2]; Adelmidrol 3 mg/kg i.p. when injecting CAR, 3 hr) was 69.8 percentage, the “paw edema as a percentage” value ([2]; Adelmidrol 3 mg/kg i.p. when injecting CAR, 4 hr) was 67.2 percentage and the “paw edema as a percentage” value ([2]; Adelmidrol 3 mg/kg i.p. when injecting CAR, 5 hr) was 67.4 percentage. The “paw edema as a percentage” value ([2]; Adelmidrol 10 mg/kg i.p. when injecting CAR, 0 min.) was 102.6 percentage, the “paw edema as a percentage” value ([2]; Adelmidrol 10 mg/kg i.p. when injecting CAR, 30 min) was 81.6 percentage and the “paw edema as a percentage” value ([2]; Adelmidrol 10 mg/kg i.p. when injecting CAR, 1 hr) was 68.7 percentage. For the same compound, the “paw edema as a percentage” value ([2]; Adelmidrol 10 mg/kg i.p. when injecting CAR, 2 hr) was 63.8 percentage, the “paw edema as a percentage” value ([2]; Adelmidrol 10 mg/kg i.p. when injecting CAR, 3 hr) was 53.6 percentage and the “paw edema as a percentage” value ([2]; Adelmidrol 10 mg/kg i.p. when injecting CAR, 4 hr) was 49.5 percentage. For the same compound, the “paw edema as a percentage” value ([2]; Adelmidrol 10 mg/kg i.p. when injecting CAR, 5 hr) was 49.5 percentage, the “IL1β level in the lung (FIG. 9)” value (TNF-α and IL1β) was “considerably reduces the levels of both inflammatory cytokines” and the “TNF-α level in the lung (FIG. 9)” value (TNF-α and IL1β) was “considerably reduces the levels of both inflammatory cytokines”. The “number of macrophages, neutrophils and lymphocytes in BAL fluid (FIGS. 7 and 8)” value [3] was “reduces the number of macrophages, neutrophils and lymphocytes in a very significant manner” and the “MPO activity in the bowel, marker of neutrophil activity (FIG. 4)” value (myeloperoxidase (MPO)) was “anti-inflammatory effect on the bowel tissue”.
